Columns and labels:
DRB1*0301 = DRB1*0301 (Homo sapiens, UniProt P01903+P01911, A100K/A102G/A103R/A169T/F55Y/I96L/K41T/L162R/M171V/P40S/Q125H/Q178H/Q39Y/R42S/S66N/T106N/T262R/W38E/Y61H); assay: biochemical; format: binding
DRB1*1201 = DRB1*1201 (Homo sapiens, UniProt P01903+P01911, A100R/A169T/D57E/D86V/F55L/H45Y/K41T/L162R/M171V/P40S/Q125H/Q178H/Q39Y/Q99D/R42G/S66L/T262R/V114A/V67L/W38E/Y59H/Y61H/Y89S); assay: biochemical; format: binding

Chain of DRB1*0301 (P01903 26-254 limits assumed, other chains not shown): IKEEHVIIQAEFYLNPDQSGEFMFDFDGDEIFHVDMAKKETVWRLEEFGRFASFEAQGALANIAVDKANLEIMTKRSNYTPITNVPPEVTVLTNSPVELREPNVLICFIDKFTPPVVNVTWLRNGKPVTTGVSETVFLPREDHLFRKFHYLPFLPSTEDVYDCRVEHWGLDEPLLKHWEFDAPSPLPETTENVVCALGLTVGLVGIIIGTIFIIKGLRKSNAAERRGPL

## CSCC[C@H](NC(=O)CNC(=O)CNC(=O)[C@H](CCCNC(=N)N)NC(=O)[C@@H](NC(=O)[C@H](CCC(N)=O)NC(=O)[C@H](C)NC(=O)[C@@H](NC(=O)[C@@H](NC(=O)[C@H](CC(C)C)NC(=O)[C@H](Cc1c[nH]cn1)NC(=O)[C@H](Cc1ccc(O)cc1)NC(=O)[C@H](CCCCN)NC(=O)[C@H](Cc1ccccc1)NC(=O)[C@@H](N)CCSC)[C@@H](C)O)C(C)C)C(C)C)C(=O)O [Peptide 68.0119]
DRB1*0301
  IC50: > 20 µM
DRB1*1201
  IC50: 482 nM

## CC[C@H](C)[C@H](NC(=O)[C@H](CS)NC(=O)[C@H](Cc1c[nH]cn1)NC(=O)[C@H](C)N)C(=O)N[C@@H](CCCNC(=N)N)C(=O)N[C@@H](CC(N)=O)C(=O)N[C@@H](CCCCN)C(=O)N[C@@H](CO)C(=O)N[C@H](C(=O)N[C@H](C(=O)N[C@@H](CC(C)C)C(=O)N[C@@H](CC(C)C)C(=O)NCC(=O)N[C@@H](CCCNC(=N)N)C(=O)N[C@@H](Cc1c[nH]cn1)C(=O)O)[C@@H](C)CC)C(C)C [Peptide 68.0066]
DRB1*0301
  IC50: > 20 µM
DRB1*1201
  IC50: 160 nM

## CC[C@H](C)[C@H](NC(=O)[C@H](Cc1c[nH]c2ccccc12)NC(=O)[C@H](CCCCN)NC(=O)[C@H](CCCNC(=N)N)NC(=O)[C@H](Cc1ccc(O)cc1)NC(=O)[C@H](Cc1c[nH]cn1)NC(=O)[C@@H](NC(=O)[C@@H](NC(=O)[C@H](CCCCN)NC(=O)[C@@H](NC(=O)[C@H](Cc1ccc(O)cc1)NC(=O)[C@H](CC(C)C)NC(=O)[C@H](CO)NC(=O)[C@@H]1CCCN1C(=O)[C@@H](N)CCCNC(=N)N)[C@@H](C)O)C(C)C)C(C)C)C(=O)O [Peptide 68.0082]
DRB1*0301
  IC50: > 20 µM
DRB1*1201
  IC50: 4160 nM

## CC(C)C[C@H](NC(=O)[C@@H]1CCCN1C(=O)[C@H](Cc1c[nH]cn1)NC(=O)[C@@H]1CCCN1C(=O)[C@H](Cc1ccccc1)NC(=O)[C@H](CO)NC(=O)[C@H](Cc1c[nH]cn1)NC(=O)[C@H](CO)NC(=O)[C@@H](NC(=O)[C@H](CCC(N)=O)NC(=O)[C@H](Cc1ccccc1)NC(=O)[C@@H](NC(=O)[C@H](CCC(N)=O)NC(=O)CN)C(C)C)C(C)C)C(=O)N[C@@H](Cc1ccc(O)cc1)C(=O)O [Peptide 68.0069]
DRB1*0301
  IC50: > 20 µM
DRB1*1201
  IC50: 557 nM

## CC[C@H](C)[C@H](NC(=O)[C@H](Cc1ccccc1)NC(=O)[C@H](Cc1c[nH]c2ccccc12)NC(=O)CNC(=O)[C@H](Cc1ccccc1)NC(=O)[C@H](CC(C)C)NC(=O)[C@H](Cc1ccccc1)NC(=O)CNC(=O)[C@@H](N)CC(C)C)C(=O)N[C@@H](CCCCN)C(=O)N[C@@H](CO)C(=O)N[C@@H](CO)C(=O)N[C@@H](CC(N)=O)C(=O)N[C@@H](CCC(=O)O)C(=O)N[C@@H](C)C(=O)O [Peptide 68.0084]
DRB1*0301
  IC50: > 20 µM
DRB1*1201
  IC50: 475 nM

## CC(C)C[C@H](NC(=O)[C@@H](NC(=O)[C@H](CCC(=O)O)NC(=O)[C@H](C)NC(=O)[C@H](C)NC(=O)[C@H](C)NC(=O)[C@H](CCC(N)=O)NC(=O)[C@@H](NC(=O)[C@@H](NC(=O)[C@H](Cc1ccccc1)NC(=O)[C@H](C)NC(=O)[C@H](C)NC(=O)[C@@H](N)C(C)C)[C@@H](C)O)C(C)C)[C@@H](C)O)C(=O)N[C@@H](CO)C(=O)N[C@@H](CCC(=O)O)C(=O)O [Peptide 68.0136]
DRB1*0301
  IC50: > 20 µM
DRB1*1201
  IC50: 4460 nM

## CC(C)C[C@H](NC(=O)[C@H](CO)NC(=O)[C@H](CC(C)C)NC(=O)[C@H](CO)NC(=O)[C@H](C)NC(=O)[C@H](C)NC(=O)[C@H](CCCNC(=N)N)NC(=O)[C@H](C)NC(=O)[C@H](CC(C)C)NC(=O)[C@H](CC(C)C)NC(=O)[C@H](CC(C)C)NC(=O)[C@@H]1CCCN1C(=O)[C@H](C)N)C(=O)NCC(=O)N[C@@H](Cc1ccccc1)C(=O)O [Peptide 68.0020]
DRB1*0301
  IC50: > 20 µM
DRB1*1201
  IC50: 225 nM

## CSCC[C@H](NC(=O)[C@@H]1CCCN1C(=O)[C@@H](N)CC(=O)O)C(=O)N[C@@H](Cc1ccccc1)C(=O)N[C@@H](CCCCN)C(=O)N[C@@H](Cc1ccc(O)cc1)C(=O)N[C@@H](Cc1c[nH]cn1)C(=O)N[C@@H](CC(C)C)C(=O)N[C@H](C(=O)N[C@H](C(=O)N[C@@H](C)C(=O)N[C@@H](CCC(N)=O)C(=O)N[C@H](C(=O)N[C@@H](CCCNC(=N)N)C(=O)NCC(=O)O)C(C)C)C(C)C)[C@@H](C)O [Peptide 68.0118]
DRB1*0301
  IC50: > 20 µM
DRB1*1201
  IC50: 470 nM

— US9340577B2, “HLA binding motifs and peptides and their uses” (priority 1992, dated 2016)
